These results are taken from PMC9897788, “Design, synthesis and cytotoxic evaluation of novel bis-thiazole derivatives as preferential Pim1 kinase inhibitors with in vivo and in silico study” (Journal of Enzyme Inhibition and Medicinal Chemistry, 2023).

Each structure is given as a SMILES string.

Series [1] can be described thus: Solubility in DMSO (NMR observation). The format is physicochemical. As to conditions: noticed from weak NMR signals.
The subject of series [2] is breast cancer T47D cell line. In words: Breast T47D cancer cell cycle flowcytometry. The format is cell-based. On the procedure:
After treatment with test compounds for 48 h and paclitaxel (1 µM) for 48 h as positive control, cells (10^5 cells) are collected by trypsinization and washed twice with ice-cold PBS (pH 7.4). Cells are re-suspended in two millilitres of 60% ice-cold ethanol and incubated at 4 °C for 1 h for fixation. Fixed cells are washed twice again with PBS (pH 7.4) and re-suspended in 1 ml of PBS containing 50 µg/mL RNAase A and 10 µg/mL propidium iodide (PI). After 20 min of incubation in dark at 37 °C, cells are analysed for DNA contents using flow cytometry analysis using FL2 (λex/em 535/617 nm) signal detector (ACEA Novocyte™ flowcytometer, ACEA Biosciences Inc., San Diego, CA). For each sample, 12,000 events are acquired. Cell cycle distribution is calculated using ACEA NovoExpress™ software (ACEA Biosciences Inc., San Diego, CA)[36].

For the compound `Cc1nc(Nc2cccc(Nc3nc(C)c(N=Nc4ccccc4)s3)c2)sc1N=Nc1ccccc1` [5a, N^1,N^3-bis(4-methyl-5-(phenyldiazenyl)thiazol-2-yl)benzene-1,3-diamine], the “solubility in DMSO” value in series [1] is reported as “poor solubility in DMSO”.
As for `CC(=O)c1sc(Nc2cccc(Nc3nc(C)c(C(C)=O)s3)c2)nc1C` [3b, 1,1’-(2,2’-(1,3-Phenylenebis(azanediyl))bis(4-methylthiazole-5,2-diyl))diethanone], in series [2] (48 h incubation), the “Percentage of breast T47D cells, G0/G1 Phase” value is on record as 66.5%; the “Percentage of breast T47D cells, Pre G1 Phase” value is reported as 2.6%; the “Percentage of breast T47D cells, S Phase” value is 18.7%. In addition, in series [2] (relative to untreated control), the “G2 phase cells lower than the control by” value worked out at 58% and the “pre-G1 phase cells higher than the untreated control by” value was found to be 78%.
For `Fc1ccc(-c2cs/c(=N\c3ccccc3)n2-c2cccc(-n3c(-c4ccc(F)cc4)cs/c3=N\c3ccccc3)c2)cc1` [8b, N,N’-(3,3’-(1,3-phenylene)bis(4–(4-fluorophenyl)thiazole-3(3H)-yl-2(3H)-ylidene))dianiline], in series [2] (48 h incubation), the “Percentage of breast T47D cells, G0/G1 Phase” value is 51.7%; the “Percentage of breast T47D cells, G2 Phase” value stood at 25.9%; the “Percentage of breast T47D cells, Pre G1 Phase” value worked out at 1.9%; the “Percentage of breast T47D cells, S Phase” value was determined as 26.5%. Besides, the “S phase cells higher than the control by” value in series [2] (relative to untreated control) is 77.8%.
